Measured values as given in patent US4300011A, “Selective production of aromatics” (Mobil Oil Corporation, priority 1980, dated 1981).

Assays:
[1] = Effective critical dimension from CPK space-filling atomic models; format: physicochemical
From the text: The concept of an "effective critical dimension" of a molecule is described by Breck on pages 633 to 641 in Zeolite Molecular Sieves, John Wiley & Sons, Inc. (1974), the entire contents of which are incorporated herein by reference. Generally, this dimension is the smallest dimension that will permit passage through the pores of the zeolite, i.e., the dimension that most nearly approaches the pore size of the zeolite. For example, the critical dimension of n-hexane is the thickness not the length, while the critical dimension for benzene is the cross-sectional diameter, rather than the thickness.
Effective critical dimensions for the purposes of this invention were determined by the use of CPK (Corey-Pauling-Koltun) space-filling atomic models, obtained from Ealing Corporation, Natick, Mass. The following Table illustrates critical dimensions measured from such models with corresponding pKa values for several heterocyclic compounds.

[2] = cited from earlier work; for pKa: from Katritzky, Physical Methods in Heterocyclic Chemistry

Compound | Effective Critical Dimension [1] [Angstroms] | relative base strength ([2]; versus 1,10-phenanthroline) | pKa [2]
c1ccc2c(c1)ccc1ncccc12 [5,6-Benzoquinoline] | 7.5 | slightly stronger base than 1,10-phenanthroline | 
Cc1ccc2ccc3ccc(C)nc3c2n1 [Neocuproine, 2,9-dimethyl-1,10-phenanthroline] | 8.3 |  | 
Cc1nc(C)c(C)c(C)c1C [Pentamethylpyridine] | 7.7 |  | 
Cc1ccncc1C [3,4-Lutidine, 3,4-dimethylpyridine] | 7.0 |  | 6.5
Cc1cc(C)c2ccccc2n1 [2,4-Dimethylquinoline] | 7.5 |  | 5.1
c1ccc(-c2ccnc3c2ccc2c(-c4ccccc4)ccnc23)cc1 [Bathophenanthroline, 4,7-diphenyl-1,10-phenanthroline] | 9.5 |  | 
c1cnc2c(c1)ccc1cccnc12 [1,10-Phenanthroline] | 7.5 |  | 
Cc1ccnc2c(C)cccc12 [4,8-Dimethylquinoline] | 7.4 |  | 
c1ccc2c(c1)ccc1cccnc12 [7,8-Benzoquinoline] | 7.5 |  | 
c1ccncc1 [Pyridine, reference compound] | 6.2 |  | 
Cc1cc(C)c2cccc(C)c2n1 [2,4,8-Trimethylquinoline] | 7.9 |  | 4.5
Cc1cccc(C)n1 [2,6-Lutidine] | 6.6 |  | 6.8
Cc1cc(C)nc(C)c1 [2,4,6-Collidine, 2,4,6-trimethylpyridine] | 7.5 |  | 
Cc1ccnc2ccccc12 [4-Methylquinoline] | 7.3 |  | 5.2
